Test results published in patent US20030100772A1, “Oxygen-containing heterocyclic compounds” (priority 2000, published 2003).

Tests used:
[1] = target: T1, recombinant human PDE IV enzyme (HSPDE4A4B) (Homo sapiens, UniProt P27815); assay: Inhibition test on recombinant human PDE IV enzyme; type: biochemical; details: [3H]cAMP 1 μmol/L substrate, read-out: enzyme inhibitory activity
T1 construct: made in house; host or cells: Sf9 insect cells
Protocol: Inhibition Test on Recombinant Human PDE IV Enzyme
Human phosphodiesterase cDNA (HSPDE4A4B) was isolated from HL-60 cells. The expected amino acid sequence is the same as that (HSPDE4A5) reported by G. Bolger et al. [Mol. Cell Biol. 13, p. 6558 (1993)]. This recombinant protein was expressed in Sf9 insect cells. The PDE activity was determined by the following two step process according to the method by R. L. Kincaid and V. C. Manganiello [Method. Enzymol., 159, pp. 457-470 (1988)]. Using [^3H]cAMP (final concentration: 1 μmol/L) as a substrate, the reaction was conducted in a standard mixture containing N,N-bis(2-hydroxyethyl)-2-aminoethanesulfonic acid (50 mmol/L, pH 7.2), MgCl2 (1 mmol/L) and soybean trypsin inhibitor (0.1 mg/mL). The reaction was started by addition of the enzyme, and the incubation was conducted at 30° C. for 10 to 30 minutes. The reaction was terminated with hydrochloric acid, and the formed 5′-AMP was completely decomposed with […]. After chromatography with DEAE-Sephadex A-25, the eluted [^3H]-adenosine was counted by a scintillation counter. The test compounds were added after dissolved in DMSO (concentration: 1.7%).

T1 sequence (P27815 whole entry): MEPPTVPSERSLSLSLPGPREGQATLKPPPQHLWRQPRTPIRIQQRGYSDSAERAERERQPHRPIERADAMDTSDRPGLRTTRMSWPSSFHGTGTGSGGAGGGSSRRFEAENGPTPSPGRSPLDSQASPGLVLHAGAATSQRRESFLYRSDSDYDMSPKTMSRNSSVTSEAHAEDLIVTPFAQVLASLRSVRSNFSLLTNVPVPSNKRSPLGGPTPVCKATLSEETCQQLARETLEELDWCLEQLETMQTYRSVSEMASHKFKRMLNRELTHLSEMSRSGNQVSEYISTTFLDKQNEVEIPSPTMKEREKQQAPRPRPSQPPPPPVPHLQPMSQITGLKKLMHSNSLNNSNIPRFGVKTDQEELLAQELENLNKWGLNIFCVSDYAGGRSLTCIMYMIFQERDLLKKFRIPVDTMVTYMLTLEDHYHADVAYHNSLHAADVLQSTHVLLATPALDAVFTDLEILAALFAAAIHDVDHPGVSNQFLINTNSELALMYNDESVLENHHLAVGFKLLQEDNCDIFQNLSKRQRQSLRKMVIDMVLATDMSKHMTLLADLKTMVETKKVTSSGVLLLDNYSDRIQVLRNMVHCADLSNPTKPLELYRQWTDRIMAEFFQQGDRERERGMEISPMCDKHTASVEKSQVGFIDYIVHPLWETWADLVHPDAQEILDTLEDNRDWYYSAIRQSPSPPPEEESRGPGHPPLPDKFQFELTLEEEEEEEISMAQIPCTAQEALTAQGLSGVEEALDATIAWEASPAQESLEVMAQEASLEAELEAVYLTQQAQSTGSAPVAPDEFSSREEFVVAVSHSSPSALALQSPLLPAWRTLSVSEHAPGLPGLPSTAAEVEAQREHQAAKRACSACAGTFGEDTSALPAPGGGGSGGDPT

SMILES	melting point [°C]	inhibition at 10 µM ([1]; drug concentration of 10 μmol/L) [%]	inhibition at 1 µM ([1]; concentration of 1 μmol/L) [%]
COc1ccc(C2(C3CCCCC3=O)CCC(C(=O)O)CC2)c2c1OCCO2 (single isomer, unassigned) [Compound 9a, 4-(Cyclohexanon-2-yl)-4-(8-methoxy-1,4-benzodioxan-5-yl)-cyclohexanecarboxylic Acid]	243 to 244	–	–
COc1ccc(C2(C3CCCCC3=O)CCC(C(=O)O)CC2)c2c1OCCO2 (single isomer, unassigned) [Compound 9b, 4-(Cyclohexanon-2-yl)-4-(8-methoxy-1,4-benzodioxan-5-yl)-cyclohexanecarboxylic Acid]	222 to 223	–	–
COc1ccc(C2(C3CCCC3=O)CCC(C(=O)O)CC2)c2c1OCCO2 (centres unmarked) [Compound 8, 4-(Cyclopentanon-2-yl)-4-(8-methoxy-1,4-benzodioxan-5-yl)-cyclohexanecarboxylic Acid]	241 to 243	≥ 30	–
CCOC(=O)C=CC1(c2ccc(OC)c3c2OCCO3)CCC(=O)CC1 [Compound 13, Ethyl 3-[1-(8-methoxy-1,4-benzodioxan-5-yl)-4-oxocyclohexyl]acrylate]	–	–	≥ 99
